Activity calls are given as the source filed them.
Legend:
[1] = target: T1, Endoplasmic reticulum aminopeptidase 1 (Homo sapiens, UniProt Q9NZ08); assay: ERAP1 enzyme inhibitors, dose response, biochemical, fluorescence plate reader, dry powder (AID 1117292); format: functional
[2] = target: T1, Endoplasmic reticulum aminopeptidase 1; assay: ERAP1 aminopeptidase inhibitors, dose response, biochemical, cherry-pick, set 2, plate reader (AID 743314)
[3] = P. falciparum late gametocyte killing, dose response, luminescence (AID 1117278); format: functional, cell-based;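 note: gametocytes exposed to compound for 24 hours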
Cytochrome P450 1A2 = target: T2, Cytochrome P450 1A2 (Homo sapiens, UniProt P05177);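 note: PubChem cytochrome P450 panel assay, CYP1A2 panel member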
T2 sequence (P05177 whole entry): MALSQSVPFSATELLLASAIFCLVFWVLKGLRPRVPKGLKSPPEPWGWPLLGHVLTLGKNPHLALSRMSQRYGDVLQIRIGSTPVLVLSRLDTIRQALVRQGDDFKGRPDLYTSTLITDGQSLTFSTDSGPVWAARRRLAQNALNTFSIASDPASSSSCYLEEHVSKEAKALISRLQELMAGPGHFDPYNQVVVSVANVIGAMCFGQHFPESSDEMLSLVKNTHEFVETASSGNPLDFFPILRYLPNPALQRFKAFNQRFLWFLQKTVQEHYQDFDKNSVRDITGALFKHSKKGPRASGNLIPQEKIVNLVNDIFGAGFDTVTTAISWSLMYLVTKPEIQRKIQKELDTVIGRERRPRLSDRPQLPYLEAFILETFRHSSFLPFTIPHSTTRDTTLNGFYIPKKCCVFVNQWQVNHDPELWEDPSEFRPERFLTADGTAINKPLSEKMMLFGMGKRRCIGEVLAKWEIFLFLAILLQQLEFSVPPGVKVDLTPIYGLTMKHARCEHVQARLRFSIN

Cytochrome P450 2C19 = Cytochrome P450 2C19 (Homo sapiens, UniProt P33261); assay: Cytochrome panel assay with activity outcomes. Panel member name: p450-cyp2c19 Compounds with AC50 equal or less than 10 uM are considered active; format: functional
[4] = Jurkat T cell cytotoxicity, dose response, cytotoxicity control for P. falciparum gametocyte viability project, luminescence (AID 1117277); format: functional, cell-based;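 note: potency reflects loss of cellular ATP meaning fewer viable cells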
[5] = THP-1 cell cytotoxicity, dose response, cytotoxicity control for Vif-APOBEC3G degradation inhibitor project, THP-1 cells (AID 1117359); format: functional; details: Human immunodeficiency virus 1, THP-1
Vero = Vero cell cytotoxicity, cytotoxicity control for flavivirus capping enzyme inhibitors (AID 588742); format: functional; details: Chlorocebus sabaeus
[6] = target: Glutathione-S-transferase (Schistosoma japonicum, UniProt Q26513); assay: biotin-GST/anti-GST TR-FRET signal inhibitors, dose response, artefact control for Vif-APOBEC3G degradation inhibitor project, biochemical (AID 1117362); format: functional
[7] = target: E3 ubiquitin-protein ligase UHRF1 (Homo sapiens, UniProt Q96T88); assay: Counterscreen for inhibitors of 5-meCpG-binding domain protein 2 (MBD2): TRFRET-based biochemical high throughput dose response assay to identify inhibitors of binding of ubiquitin-like with PHD and ring finger domains 1 (UHRF1) to methylated oligonucleotide.
[8] = Shn3 3'UTR reporter inhibitors, dose response, cell-based, Clone20 osteoblasts, firefly luciferase, cherry-picked (AID 624132); format: functional;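 note: firefly luciferase luminescence from reporter carrying the Shn3 3'UTR in osteoblasts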
[9] = target: T3, DNA repair protein RAD52 homolog (Homo sapiens, UniProt P43351); format: functional, biochemical
T3 sequence (P43351 whole entry): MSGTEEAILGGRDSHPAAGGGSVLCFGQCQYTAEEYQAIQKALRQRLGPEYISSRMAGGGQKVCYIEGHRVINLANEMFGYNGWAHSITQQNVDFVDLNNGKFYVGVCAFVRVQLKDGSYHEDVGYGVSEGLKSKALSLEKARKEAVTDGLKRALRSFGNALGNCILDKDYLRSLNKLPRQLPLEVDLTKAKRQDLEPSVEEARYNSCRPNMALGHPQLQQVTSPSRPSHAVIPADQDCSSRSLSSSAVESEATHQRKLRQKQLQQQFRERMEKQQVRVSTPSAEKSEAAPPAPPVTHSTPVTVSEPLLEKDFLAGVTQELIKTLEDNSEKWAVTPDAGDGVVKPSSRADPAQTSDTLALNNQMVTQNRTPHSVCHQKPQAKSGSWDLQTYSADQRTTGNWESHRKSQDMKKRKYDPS

HEK293 [10] = assay: cells; details: Homo sapiens
HEK293 [11] = assay: cells; details: Homo sapiens; remark: listed apart in the source
[12] = HepG2 cell cytotoxicity, dose response, cytotoxicity control for Shn3 inhibitor project, CellTiter-Glo, cherry-picked (AID 624134); format: functional, cell-based
[13] = T. cruzi intracellular amastigote growth inhibition, dose response, imaging, CA-I/72 strain, bovine embryo skeletal muscle, dry powder (AID 651885); format: functional, cell-based
[14] = T. cruzi amastigote growth inhibition, dose response, Tulahuen strain, L-6 host cells, dry powder (AID 651890); format: functional, cell-based
[15] = P. falciparum blood-stage growth inhibition, dose response, NF54 strain, plate reader, dry powder (AID 651889); format: functional, cell-based
[16] = intracellular Trypanosoma cruzi inhibitors in host cells – cell-based, plate reader, cherry-pick samples, set 3, dose response (AID 651818); format: functional;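 note: compounds incubated with infected cells for about four days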
[17] = L. donovani amastigote growth inhibition, dose response, axenic amastigotes, plate reader, dry powder (AID 651892); format: functional, cell-based
[18] = L. donovani amastigote growth inhibition, dose response, axenic amastigotes, plate reader, cherry pick (AID 651891); format: functional, cell-based; details: Leishmania donovani
[19] = T. b. rhodesiense proliferation inhibition, dose response, STIB900 strain, plate reader, dry powder (AID 651894); format: functional, cell-based
[20] = T. b. rhodesiense proliferation inhibition, dose response, STIB900 strain, plate reader, cherry pick (AID 651893); format: functional, cell-based; details: Trypanosoma brucei
[21] = growth inhibition of intracellular T. cruzi, dose response, cell-based, plate reader, dry powder samples (AID 651845); format: functional
[22] = T. cruzi growth inhibition in host cells, dose response, cell-based, plate reader, dry powder, set 2 (AID 652275); format: functional
[23] = L-6 rat myoblast cytotoxicity, dose response, counter-screen for T. cruzi inhibitor project, cell-based, plate reader, dry powder (AID 651895); format: functional
[24] = cytotoxicity in L-6 rat myocytes, dose response, cytotoxicity control, cell-based, plate reader, cherry-pick (AID 651896); format: functional
[25] = IGROV1 ovarian cancer cell cytotoxicity, dose response, PAX8 inhibitor project, plate reader, dry powder samples (AID 743043); format: functional, cell-based; details: IGROV-1
[26] = NIH:OVCAR-3 ovarian cancer cell cytotoxicity, dose response, PAX8 inhibitor project, plate reader, dry powder samples (AID 743044); format: functional, cell-based
[27] = cytotoxicity in OVCAR8 ovarian cancer cells, dose response, PAX8 project, cell-based, plate reader, dry powder samples (AID 743197); format: functional; details: OVCAR-8
[28] = A549 cell cytotoxicity, dose response, CellTiter-Glo luminescence, dry powder, set 17 (AID 1117284); format: functional, cell-based
[29] = IOSE-T80 ovarian epithelial cell cytotoxicity, dose response, cytotoxicity control for PAX8 inhibitor project, plate reader, dry powder samples (AID 743045); format: functional, cell-based
[30] = HEK293T cytotoxicity, dose response, cytotoxicity control for miR-122 modulator project, cell-based, inhibitor set, cherry-pick, set 2 (AID 720697); format: functional
Paired box protein Pax-8 = Paired box protein Pax-8 (Homo sapiens, UniProt Q06710); assay: inhibitors of PAX8-driven TPO luciferase reporter, dose response, RMG-I cells, cherry-pick (AID 687027); format: functional, cell-based;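 note: luciferase reporter driven by Pax8 target thyroperoxidase promoter measured by SteadyGlo luminescence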
[31] = A549 cell cytotoxicity, dose response, cytotoxicity control, 24 h, CellTiter-Glo luminescence, cherry-picks (AID 1053115); format: functional, cell-based; details: A549, 24 h
[32] = HEK293T cytotoxicity, dose response, cytotoxicity control for miR-122 modulator project, cell-based, activator set, cherry-pick (AID 720690); format: functional;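 note: HEK293T human cells scored for general mammalian cytotoxicity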
[33] = Luminescence-based cell-based high throughput dose response assay to identify activators of the DAF-12 from the parasite S. stercoralis (ssDAF-12).; format: functional
[34] = target: T4, Oxysterols receptor LXR-beta (Homo sapiens, UniProt P55055); assay: LXR agonists, Gal4 luciferase reporter, dose response, counter-screen for ssDAF-12 agonist project, cell-based, luminescence, HEK293, S. stercoralis campaign (AID 720737); format: functional; details: read-out: IC50 (the source's name)
T4 sequence (P55055 whole entry): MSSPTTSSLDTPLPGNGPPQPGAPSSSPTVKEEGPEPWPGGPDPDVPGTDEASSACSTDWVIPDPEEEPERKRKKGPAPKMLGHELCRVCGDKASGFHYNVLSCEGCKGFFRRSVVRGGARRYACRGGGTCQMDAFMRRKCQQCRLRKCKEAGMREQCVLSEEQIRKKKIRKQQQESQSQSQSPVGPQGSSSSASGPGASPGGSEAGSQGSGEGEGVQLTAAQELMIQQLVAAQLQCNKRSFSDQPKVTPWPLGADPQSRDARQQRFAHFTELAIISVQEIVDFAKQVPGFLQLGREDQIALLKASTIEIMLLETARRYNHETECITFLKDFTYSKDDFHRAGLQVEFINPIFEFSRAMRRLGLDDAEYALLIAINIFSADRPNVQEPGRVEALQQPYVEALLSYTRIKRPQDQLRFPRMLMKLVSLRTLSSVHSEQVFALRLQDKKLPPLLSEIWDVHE

[35] = TB:CFU starved Measured in Microorganism System Using Imaging - 7108-06_Inhibitor_Dose_DryPowder_Activity_Set2.; format: functional
[36] = A549 cell cytotoxicity, dose response, cytotoxicity control, CellTiter-Glo luminescence, dry powder, set 18 (AID 1117290); format: functional, cell-based
[37] = HepG2 cell cytotoxicity, dose response, cytotoxicity control, CellTiter-Glo luminescence, dry powder, set 20 (AID 1117291); format: functional, cell-based
[38] = Dose-response inhibition of insulin secretion in a rat insulinoma line at 5 mM glucose (AID 1117331); format: functional, cell-based; details: INS-1E

T1 sequence (Q9NZ08 whole entry): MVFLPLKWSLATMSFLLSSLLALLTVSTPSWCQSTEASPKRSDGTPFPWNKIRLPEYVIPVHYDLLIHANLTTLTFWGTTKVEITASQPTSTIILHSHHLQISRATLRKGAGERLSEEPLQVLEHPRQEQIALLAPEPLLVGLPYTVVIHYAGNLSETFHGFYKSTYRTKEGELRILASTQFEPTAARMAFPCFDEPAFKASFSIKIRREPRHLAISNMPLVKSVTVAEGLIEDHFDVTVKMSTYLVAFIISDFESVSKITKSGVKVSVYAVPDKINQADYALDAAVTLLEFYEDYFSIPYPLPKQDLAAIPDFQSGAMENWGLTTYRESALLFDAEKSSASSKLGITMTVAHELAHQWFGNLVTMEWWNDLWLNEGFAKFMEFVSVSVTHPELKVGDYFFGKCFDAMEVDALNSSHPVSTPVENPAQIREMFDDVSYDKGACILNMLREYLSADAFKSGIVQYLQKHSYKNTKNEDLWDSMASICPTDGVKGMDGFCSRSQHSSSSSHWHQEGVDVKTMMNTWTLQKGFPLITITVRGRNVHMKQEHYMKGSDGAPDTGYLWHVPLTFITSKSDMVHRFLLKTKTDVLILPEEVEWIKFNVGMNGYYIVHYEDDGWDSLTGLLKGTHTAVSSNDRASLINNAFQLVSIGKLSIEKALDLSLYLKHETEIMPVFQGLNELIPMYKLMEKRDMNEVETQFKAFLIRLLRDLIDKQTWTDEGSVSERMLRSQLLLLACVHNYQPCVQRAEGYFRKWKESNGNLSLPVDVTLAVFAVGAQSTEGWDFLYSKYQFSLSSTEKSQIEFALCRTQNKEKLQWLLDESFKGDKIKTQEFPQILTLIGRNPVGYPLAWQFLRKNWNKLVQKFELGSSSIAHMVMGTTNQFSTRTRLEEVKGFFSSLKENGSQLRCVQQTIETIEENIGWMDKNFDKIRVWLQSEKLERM
Sequence of Cytochrome P450 2C19 (P33261 whole entry): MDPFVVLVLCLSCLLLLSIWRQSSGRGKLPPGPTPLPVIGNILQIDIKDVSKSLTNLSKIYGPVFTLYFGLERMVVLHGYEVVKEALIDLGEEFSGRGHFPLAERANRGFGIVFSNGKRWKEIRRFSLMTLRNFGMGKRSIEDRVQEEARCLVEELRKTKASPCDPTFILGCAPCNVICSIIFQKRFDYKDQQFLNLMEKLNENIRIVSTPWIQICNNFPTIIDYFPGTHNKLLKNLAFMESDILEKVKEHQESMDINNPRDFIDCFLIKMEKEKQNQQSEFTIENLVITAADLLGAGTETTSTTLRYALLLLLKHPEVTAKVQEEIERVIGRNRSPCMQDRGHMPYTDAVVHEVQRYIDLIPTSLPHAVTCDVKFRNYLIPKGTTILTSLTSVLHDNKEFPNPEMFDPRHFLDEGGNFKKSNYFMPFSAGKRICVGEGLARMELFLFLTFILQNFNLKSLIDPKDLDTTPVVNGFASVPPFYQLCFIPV
Sequence of Paired box protein Pax-8 (Q06710 whole entry): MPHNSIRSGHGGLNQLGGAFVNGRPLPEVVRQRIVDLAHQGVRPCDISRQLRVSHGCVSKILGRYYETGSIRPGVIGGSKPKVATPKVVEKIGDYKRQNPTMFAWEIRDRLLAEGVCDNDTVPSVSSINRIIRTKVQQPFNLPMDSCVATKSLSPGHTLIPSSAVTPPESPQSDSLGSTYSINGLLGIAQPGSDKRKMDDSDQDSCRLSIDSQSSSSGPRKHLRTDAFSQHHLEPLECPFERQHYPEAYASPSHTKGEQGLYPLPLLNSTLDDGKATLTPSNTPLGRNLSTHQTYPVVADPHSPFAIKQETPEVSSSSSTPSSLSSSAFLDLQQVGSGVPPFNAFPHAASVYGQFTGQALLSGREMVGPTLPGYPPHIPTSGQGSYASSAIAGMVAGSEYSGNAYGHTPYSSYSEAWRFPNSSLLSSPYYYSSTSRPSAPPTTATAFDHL
Sequence of E3 ubiquitin-protein ligase UHRF1 (Q96T88 whole entry, the tested form may be a part): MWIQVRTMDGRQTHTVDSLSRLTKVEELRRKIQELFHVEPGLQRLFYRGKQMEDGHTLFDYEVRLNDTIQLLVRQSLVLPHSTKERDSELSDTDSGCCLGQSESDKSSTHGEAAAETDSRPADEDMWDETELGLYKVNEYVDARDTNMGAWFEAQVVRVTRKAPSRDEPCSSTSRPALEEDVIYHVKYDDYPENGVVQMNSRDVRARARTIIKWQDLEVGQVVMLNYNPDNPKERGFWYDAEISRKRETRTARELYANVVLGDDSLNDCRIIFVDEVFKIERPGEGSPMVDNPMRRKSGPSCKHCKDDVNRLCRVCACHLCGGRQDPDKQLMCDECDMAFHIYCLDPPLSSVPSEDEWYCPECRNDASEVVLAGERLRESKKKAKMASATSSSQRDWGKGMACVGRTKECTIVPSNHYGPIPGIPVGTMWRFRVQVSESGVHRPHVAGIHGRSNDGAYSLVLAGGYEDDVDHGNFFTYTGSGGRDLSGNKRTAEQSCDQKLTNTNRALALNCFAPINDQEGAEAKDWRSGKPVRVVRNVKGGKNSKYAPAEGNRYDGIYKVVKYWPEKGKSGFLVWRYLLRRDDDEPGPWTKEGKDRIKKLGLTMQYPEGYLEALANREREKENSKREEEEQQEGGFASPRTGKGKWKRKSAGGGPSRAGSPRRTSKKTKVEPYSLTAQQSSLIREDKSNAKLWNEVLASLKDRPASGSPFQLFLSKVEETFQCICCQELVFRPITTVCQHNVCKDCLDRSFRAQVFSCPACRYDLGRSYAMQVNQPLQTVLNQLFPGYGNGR
Sequence of Glutathione-S-transferase (Q26513 whole entry, the tested form may be a part): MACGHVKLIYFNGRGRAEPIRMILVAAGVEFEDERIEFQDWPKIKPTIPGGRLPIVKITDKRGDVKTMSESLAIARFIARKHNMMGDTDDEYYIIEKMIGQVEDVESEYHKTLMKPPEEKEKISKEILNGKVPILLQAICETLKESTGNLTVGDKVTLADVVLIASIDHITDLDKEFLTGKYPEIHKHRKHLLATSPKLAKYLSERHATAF

CC(=O)N1CCN(C(=O)C2(NC(=O)Nc3ccc(C)cc3)CCCCC2)CC1
active: AC50 [1] 24.8 µM | AC50 [2] 8.21 µM

CCCCC1(C)NC(=O)c2c(C)sc(C(=O)OCC)c2N1 (configuration not stated)
inconclusive: AC50 (Cytochrome P450 1A2) 14.1 µM | AC50 (Cytochrome P450 2C19) 2.24 µM
inactive: IC50 [3] > 109 µM | IC50 [4] > 83.3 µM

CC[n+]1c(/C=C2/C=C(C)CC(C)(C)C2)sc2ccc(OC)cc21
active: CC50 [5] 4.13 µM | CC50 (Vero) > 40 µM | IC50 [6] > 100 µM

COc1ccc(C(=O)NCCN(C)C)c2nc3ccccc3cc12
inactive: EC50 (HEK293 [10]) > 59.5 µM | EC50 (HEK293 [11]) > 59.5 µM
active: IC50 [7] 9.07 µM | AC50 [8] 5.78 µM | AC50 [9] 1.04 µM | AC50 [12] 5.16 µM

C[C@H]1CN([C@@H](C)CO)C(=O)c2cccc(NC(=O)c3ccncc3)c2O[C@H]1CN(C)Cc1ccc(Oc2ccccc2)cc1
inactive: IC50 [15] 2.94 µM | IC50 [17] > 100 µM | IC50 [18] > 100 µM | IC50 [19] 3.62 µM | IC50 [20] 6.15 µM | IC50 [23] 47.5 µM | IC50 [24] 43.7 µM
active: IC50 [13] 0.00042 µM | IC50 [14] 0.059 µM | AC50 [16] 0.08 µM | AC50 [21] 0.0252 µM | AC50 [22] 0.0116 µM

C[C@H](O)C#Cc1ccc2c(c1)O[C@H](CN(C)Cc1ccc(-c3ccccc3)cc1)[C@@H](C)CN([C@@H](C)CO)S2(=O)=O
active: AC50 [25] 15.9 µM | AC50 [26] 10.7 µM | AC50 [27] 43.2 µM | AC50 [28] 37.9 µM | AC50 [29] 3.37 µM | AC50 [30] 1.58 µM | AC50 (Paired box protein Pax-8) 3.42 µM | AC50 [32] 15.2 µM
inactive: AC50 [31] > 60 µM

C(=N\Nc1nc2ccccc2s1)/c1cccs1
inactive: IC50 [33] > 67.5 µM | EC50 [34] > 67.5 µM

CCn1c(NC(=O)c2cccnc2O)nc2ccccc21
89.33 µM: AbsAC90 [35]

COc1ccc(S(=O)(=O)Nc2cc(C(F)(F)F)ccc2N2CCCCC2)cc1
active: AC50 [36] 46 µM | AC50 [37] 33.8 µM

Cc1cc(-n2nc3ccc(Cl)cc3n2)c(O)c(C(C)(C)C)c1 [BUMETRIZOLE]
inactive: IC50 [38] > 33.3 µM

Reference: ChEMBL document CHEMBL1201862, “PubChem BioAssay data set” (2004)
